Results taken from US9493455B2, “Azaindole derivatives as inhibitors of protein kinases” (ORIBASE PHARMA, priority 2012, dated 2016).

Columns and labels:
ABL = target: T1, ABL (Homo sapiens, UniProt P00519); assay: In vitro kinase assay (Z′-LYTE); assay type: biochemical; conditions: read-out: % of inhibition of the kinase compared to the control
T1 construct: purchased Invitrogen

ABL T315I = target: T2, ABL T315I (Homo sapiens, UniProt P00519, T315I); assay: In vitro kinase assay (Z′-LYTE); assay type: biochemical; conditions: read-out: % of inhibition of the kinase compared to the control
T2 construct: purchased Invitrogen
Procedure, shortened: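 Single-point inhibition at 100 nM per compound (10 μM for ABL T315I), 1% DMSO final. Kinase buffer: 50 mM HEPES pH 7.5, 0.01% BRIJ-35, 10 mM MgCl2, 1 mM EGTA; ATP at previously determined apparent Km. Readout by FRET emission ratio (Z′-LYTE).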

BRAF = target: T3, BRAF (Homo sapiens, UniProt P15056); assay: In vitro kinase assay (Z′-LYTE); assay type: biochemical; conditions: compound 100 nM; ATP 100 μM; read-out: % of inhibition of the kinase compared to the control
T3 construct: purchased Invitrogen
Procedure, shortened: (§1)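 Z′-LYTE FRET peptide-cleavage assay, emission ratio after 400 nm excitation; compound tested at 100 nM in 1% DMSO final. Kinase buffer 50 mM HEPES pH 7.5, 0.01% BRIJ-35, 10 mM MgCl2, 1 mM EGTA, ATP at previously determined apparent Km; read as percent inhibition.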

EGFR (ErbB1) = target: T4, EGFR (ErbB1) (Homo sapiens, UniProt P00533); assay: In vitro kinase assay (Z′-LYTE); assay type: biochemical; conditions: read-out: % of inhibition of the kinase compared to the control
T4 construct: purchased Invitrogen
Procedure, shortened: as §1

EGFR (ErbB1) T790M L858R = target: T5, EGFR (ErbB1) T790M L858R (Homo sapiens, UniProt P00533, L858R/T790M); assay: In vitro kinase assay (Z′-LYTE); assay type: biochemical; conditions: read-out: % of inhibition of the kinase compared to the control
T5 construct: purchased Invitrogen
Procedure, shortened: as §1

FGFR1 = target: T6, FGFR1 (Homo sapiens, UniProt P11362); assay: In vitro kinase assay (Z′-LYTE); assay type: biochemical; conditions: read-out: % of inhibition of the kinase compared to the control
T6 construct: purchased Invitrogen
Procedure, shortened: as §1

FGFR2 = target: T7, FGFR2 (Homo sapiens, UniProt P21802); assay: In vitro kinase assay (Z′-LYTE); assay type: biochemical; conditions: read-out: % of inhibition of the kinase compared to the control
T7 construct: purchased Invitrogen
Procedure, shortened: as §1

KDR (VEGFR2) = target: T8, KDR (VEGFR2) (Homo sapiens, UniProt P35968); assay: In vitro kinase assay (Z′-LYTE); assay type: biochemical; conditions: read-out: % of inhibition of the kinase compared to the control
T8 construct: purchased Invitrogen
Procedure, shortened: as §1

PDGFRA (PDGFR alpha) = target: T9, PDGFRA (PDGFR alpha) (Homo sapiens, UniProt P16234); assay: In vitro kinase assay (Z′-LYTE); assay type: biochemical; conditions: read-out: % of inhibition of the kinase compared to the control
T9 construct: purchased Invitrogen
Procedure, shortened: as §1

PDGFRB = target: T10, PDGFRB (Homo sapiens, UniProt P09619); assay: In vitro kinase assay (Z′-LYTE); assay type: biochemical; conditions: read-out: % of inhibition of the kinase compared to the control
T10 construct: purchased Invitrogen
Procedure, shortened: as §1

SRC = target: T11, SRC (Homo sapiens, UniProt P12931); assay: In vitro kinase assay (Z′-LYTE); assay type: biochemical; conditions: read-out: % of inhibition of the kinase compared to the control
T11 construct: purchased Invitrogen
Procedure, shortened: as §1

VEGFR1 = target: T12, VEGFR1 (Homo sapiens, UniProt P17948); assay: In vitro kinase assay (Z′-LYTE); assay type: biochemical; conditions: read-out: % of inhibition of the kinase compared to the control
T12 construct: purchased Invitrogen
Procedure, shortened: as §1

A549 = assay: In vitro cell proliferation assay (MTT); assay type: cell-based; conditions: Homo sapiens, A549, 72 h
Procedure, shortened: (§2)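 Seed 5×10^3 cells per well. Add compound at rising doses (10 nM to 3 μM), run in duplicate. Incubate 72 hr, then quantify growth with MTT.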

BxPC-3 = assay: In vitro cell proliferation assay (MTT); assay type: cell-based; conditions: Homo sapiens, BXPC-3, 72 h
Procedure, shortened: as §2

H1975 = assay: In vitro cell proliferation assay (MTT); assay type: cell-based; conditions: Homo sapiens, NCI-H1975, 72 h
Procedure, shortened: as §2

HT29 = assay: In vitro cell proliferation assay (MTT); assay type: cell-based; conditions: Homo sapiens, HT-29, 72 h
Procedure, shortened: as §2

HUVEC = assay: In vitro cell proliferation assay (MTT); assay type: cell-based; conditions: Homo sapiens, 72 h
Experimental: Cancer cell lines (5×10^3 cells per well) or HUVEC (1×10^4 cells per well) or HRMEC (1×10^4 cells per well) were distributed in 96-well plates and incubating in duplicate with escalating concentrations (10 nM to 3 μM) of compounds for 72 hr. Cell proliferation was measured using MTT (3 [4,5-dimethylthiazol-2-yl]-2,5-diphenyltetrazolium bromide).

HepG2 = assay: In vitro cell proliferation assay (MTT); assay type: cell-based; conditions: Homo sapiens, HepG2, 72 h
Procedure, shortened: as §2

HuCCT1 = assay: In vitro cell proliferation assay (MTT); assay type: cell-based; conditions: Homo sapiens, HuCCT-1, 72 h
Procedure, shortened: as §2

MDA-MB-231 = assay: In vitro cell proliferation assay (MTT); assay type: cell-based; conditions: Homo sapiens, MDA-MB-231, 72 h
Procedure, shortened: as §2

PC-3 = assay: In vitro cell proliferation assay (MTT); assay type: cell-based; conditions: Homo sapiens, PC-3, 72 h
Procedure, shortened: as §2

HRMEC = assay: In vitro cell proliferation assay (MTT); assay type: cell-based; conditions: 72 h
Procedure, shortened: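 MTT read-out of proliferation after 72 hr compound exposure; 5×10^3 cells/well, duplicate wells, dose range 10 nM–3 μM.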

HeLa = assay: In vitro cell proliferation assay (MTT); assay type: cell-based; conditions: Homo sapiens, 72 h
Procedure, shortened: as §2

HuH6 Clone 5 = assay: In vitro cell proliferation assay (MTT); assay type: cell-based; conditions: HUH-6-clone5, 72 h
Procedure, shortened: as §2

HuH7 = assay: In vitro cell proliferation assay (MTT); assay type: cell-based; conditions: Homo sapiens, Huh-7, 72 h
Procedure, shortened: as §2

T11 sequence (P12931 whole entry): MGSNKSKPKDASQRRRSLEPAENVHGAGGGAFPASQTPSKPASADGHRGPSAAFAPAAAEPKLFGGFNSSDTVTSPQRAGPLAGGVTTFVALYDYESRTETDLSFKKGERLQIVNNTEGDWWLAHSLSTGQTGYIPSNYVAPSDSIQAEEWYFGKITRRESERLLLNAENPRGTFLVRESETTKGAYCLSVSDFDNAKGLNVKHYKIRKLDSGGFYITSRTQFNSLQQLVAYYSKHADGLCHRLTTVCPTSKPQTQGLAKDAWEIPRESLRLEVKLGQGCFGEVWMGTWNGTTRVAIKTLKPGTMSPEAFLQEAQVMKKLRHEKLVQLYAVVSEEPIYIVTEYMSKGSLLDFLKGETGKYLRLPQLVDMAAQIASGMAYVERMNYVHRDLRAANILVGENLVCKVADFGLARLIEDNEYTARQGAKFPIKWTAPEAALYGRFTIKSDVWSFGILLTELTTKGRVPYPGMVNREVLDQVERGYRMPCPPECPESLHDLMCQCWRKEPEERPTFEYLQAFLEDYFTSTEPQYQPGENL
T12 sequence (P17948 27-1338): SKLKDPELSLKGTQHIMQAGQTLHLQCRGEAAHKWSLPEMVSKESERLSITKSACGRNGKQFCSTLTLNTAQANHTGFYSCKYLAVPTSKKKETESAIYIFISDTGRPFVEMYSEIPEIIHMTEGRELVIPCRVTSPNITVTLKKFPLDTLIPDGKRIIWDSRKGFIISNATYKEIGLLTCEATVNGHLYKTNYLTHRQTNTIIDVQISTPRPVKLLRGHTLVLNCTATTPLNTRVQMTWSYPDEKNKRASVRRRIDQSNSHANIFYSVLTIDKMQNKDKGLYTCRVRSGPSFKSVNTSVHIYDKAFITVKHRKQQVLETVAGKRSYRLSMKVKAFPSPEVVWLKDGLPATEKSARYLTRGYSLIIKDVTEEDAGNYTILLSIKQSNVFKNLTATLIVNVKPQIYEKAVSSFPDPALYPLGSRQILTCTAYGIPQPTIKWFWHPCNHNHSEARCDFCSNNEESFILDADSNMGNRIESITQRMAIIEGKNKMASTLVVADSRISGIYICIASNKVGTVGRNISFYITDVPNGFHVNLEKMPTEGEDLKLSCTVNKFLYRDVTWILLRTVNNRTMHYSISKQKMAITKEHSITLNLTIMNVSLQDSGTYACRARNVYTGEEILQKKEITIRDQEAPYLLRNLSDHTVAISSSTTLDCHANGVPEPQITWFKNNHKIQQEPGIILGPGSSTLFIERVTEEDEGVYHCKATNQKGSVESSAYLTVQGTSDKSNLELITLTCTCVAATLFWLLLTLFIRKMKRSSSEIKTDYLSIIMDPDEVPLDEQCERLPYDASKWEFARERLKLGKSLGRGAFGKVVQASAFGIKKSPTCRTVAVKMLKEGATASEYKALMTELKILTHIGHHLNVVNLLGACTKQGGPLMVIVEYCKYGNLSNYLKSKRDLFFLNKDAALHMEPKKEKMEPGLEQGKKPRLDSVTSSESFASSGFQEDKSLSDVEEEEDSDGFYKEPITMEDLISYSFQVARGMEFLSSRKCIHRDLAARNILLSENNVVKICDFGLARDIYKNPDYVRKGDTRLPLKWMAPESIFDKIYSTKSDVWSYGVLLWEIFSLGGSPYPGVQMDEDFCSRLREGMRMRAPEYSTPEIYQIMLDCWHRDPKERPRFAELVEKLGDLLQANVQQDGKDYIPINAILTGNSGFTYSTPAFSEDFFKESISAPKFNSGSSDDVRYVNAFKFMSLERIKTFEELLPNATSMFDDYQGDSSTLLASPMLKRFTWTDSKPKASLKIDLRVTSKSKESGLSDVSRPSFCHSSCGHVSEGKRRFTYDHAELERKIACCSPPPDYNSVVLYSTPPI
T8 sequence (P35968 20-1356): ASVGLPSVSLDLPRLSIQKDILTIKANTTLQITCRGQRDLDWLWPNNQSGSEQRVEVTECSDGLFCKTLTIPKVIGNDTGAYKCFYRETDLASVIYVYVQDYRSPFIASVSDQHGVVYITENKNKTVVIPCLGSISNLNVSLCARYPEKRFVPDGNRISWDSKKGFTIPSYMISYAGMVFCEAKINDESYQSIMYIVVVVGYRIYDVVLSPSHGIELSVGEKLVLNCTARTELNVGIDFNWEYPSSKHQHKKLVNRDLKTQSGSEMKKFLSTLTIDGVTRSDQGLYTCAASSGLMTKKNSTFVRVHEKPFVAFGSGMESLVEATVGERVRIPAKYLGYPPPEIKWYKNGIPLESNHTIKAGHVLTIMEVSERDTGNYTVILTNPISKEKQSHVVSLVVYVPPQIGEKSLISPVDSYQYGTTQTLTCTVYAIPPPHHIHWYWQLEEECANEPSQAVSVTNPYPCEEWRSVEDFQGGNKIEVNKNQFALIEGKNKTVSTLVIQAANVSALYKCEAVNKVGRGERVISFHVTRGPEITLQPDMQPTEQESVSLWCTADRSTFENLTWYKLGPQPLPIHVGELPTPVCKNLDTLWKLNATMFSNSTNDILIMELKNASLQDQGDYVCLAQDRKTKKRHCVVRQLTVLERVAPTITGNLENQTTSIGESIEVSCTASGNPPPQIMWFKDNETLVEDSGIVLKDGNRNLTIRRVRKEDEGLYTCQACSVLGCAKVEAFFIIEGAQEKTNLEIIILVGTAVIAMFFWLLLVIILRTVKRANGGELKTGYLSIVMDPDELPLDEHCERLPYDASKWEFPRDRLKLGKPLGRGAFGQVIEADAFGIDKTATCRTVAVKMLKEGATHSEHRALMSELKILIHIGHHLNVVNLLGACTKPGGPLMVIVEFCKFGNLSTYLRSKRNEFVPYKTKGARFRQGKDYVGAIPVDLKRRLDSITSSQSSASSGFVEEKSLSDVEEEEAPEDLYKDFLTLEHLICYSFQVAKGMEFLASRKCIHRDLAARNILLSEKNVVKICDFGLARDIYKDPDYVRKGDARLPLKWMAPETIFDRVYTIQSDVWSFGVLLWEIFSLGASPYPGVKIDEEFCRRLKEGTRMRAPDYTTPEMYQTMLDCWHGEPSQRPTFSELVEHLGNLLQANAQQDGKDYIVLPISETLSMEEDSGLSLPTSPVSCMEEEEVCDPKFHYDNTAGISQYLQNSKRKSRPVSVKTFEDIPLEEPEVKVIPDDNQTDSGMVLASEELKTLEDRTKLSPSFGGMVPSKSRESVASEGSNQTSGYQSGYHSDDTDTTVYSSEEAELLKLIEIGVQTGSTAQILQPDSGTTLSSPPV
T10 sequence (P09619 33-1106): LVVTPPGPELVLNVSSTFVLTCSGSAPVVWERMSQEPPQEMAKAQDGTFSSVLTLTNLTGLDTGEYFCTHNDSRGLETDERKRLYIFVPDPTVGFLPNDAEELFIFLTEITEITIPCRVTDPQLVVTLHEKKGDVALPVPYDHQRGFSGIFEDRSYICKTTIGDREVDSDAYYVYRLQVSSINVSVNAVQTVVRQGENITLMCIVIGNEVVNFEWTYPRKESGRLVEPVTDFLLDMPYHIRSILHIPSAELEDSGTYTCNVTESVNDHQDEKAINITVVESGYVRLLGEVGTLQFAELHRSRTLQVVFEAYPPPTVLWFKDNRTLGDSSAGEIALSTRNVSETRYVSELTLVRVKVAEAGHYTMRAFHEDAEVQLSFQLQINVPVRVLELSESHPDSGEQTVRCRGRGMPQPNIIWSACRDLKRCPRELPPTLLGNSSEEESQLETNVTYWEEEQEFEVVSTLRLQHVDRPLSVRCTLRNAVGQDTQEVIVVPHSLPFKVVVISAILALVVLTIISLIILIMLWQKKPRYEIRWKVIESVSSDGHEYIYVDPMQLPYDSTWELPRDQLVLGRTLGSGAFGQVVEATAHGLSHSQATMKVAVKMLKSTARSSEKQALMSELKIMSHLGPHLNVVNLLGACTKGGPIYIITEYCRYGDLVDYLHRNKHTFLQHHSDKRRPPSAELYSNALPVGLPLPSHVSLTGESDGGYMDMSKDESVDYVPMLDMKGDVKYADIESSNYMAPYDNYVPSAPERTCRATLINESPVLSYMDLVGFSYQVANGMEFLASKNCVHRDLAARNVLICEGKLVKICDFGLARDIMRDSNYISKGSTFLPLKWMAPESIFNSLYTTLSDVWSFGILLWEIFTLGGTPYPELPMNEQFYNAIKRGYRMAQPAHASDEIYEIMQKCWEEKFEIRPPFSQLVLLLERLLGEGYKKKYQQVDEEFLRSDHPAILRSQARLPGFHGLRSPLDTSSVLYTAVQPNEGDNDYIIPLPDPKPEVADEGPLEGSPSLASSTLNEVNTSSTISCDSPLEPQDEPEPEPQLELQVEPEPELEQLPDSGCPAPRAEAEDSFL
T6 sequence (P11362 22-822): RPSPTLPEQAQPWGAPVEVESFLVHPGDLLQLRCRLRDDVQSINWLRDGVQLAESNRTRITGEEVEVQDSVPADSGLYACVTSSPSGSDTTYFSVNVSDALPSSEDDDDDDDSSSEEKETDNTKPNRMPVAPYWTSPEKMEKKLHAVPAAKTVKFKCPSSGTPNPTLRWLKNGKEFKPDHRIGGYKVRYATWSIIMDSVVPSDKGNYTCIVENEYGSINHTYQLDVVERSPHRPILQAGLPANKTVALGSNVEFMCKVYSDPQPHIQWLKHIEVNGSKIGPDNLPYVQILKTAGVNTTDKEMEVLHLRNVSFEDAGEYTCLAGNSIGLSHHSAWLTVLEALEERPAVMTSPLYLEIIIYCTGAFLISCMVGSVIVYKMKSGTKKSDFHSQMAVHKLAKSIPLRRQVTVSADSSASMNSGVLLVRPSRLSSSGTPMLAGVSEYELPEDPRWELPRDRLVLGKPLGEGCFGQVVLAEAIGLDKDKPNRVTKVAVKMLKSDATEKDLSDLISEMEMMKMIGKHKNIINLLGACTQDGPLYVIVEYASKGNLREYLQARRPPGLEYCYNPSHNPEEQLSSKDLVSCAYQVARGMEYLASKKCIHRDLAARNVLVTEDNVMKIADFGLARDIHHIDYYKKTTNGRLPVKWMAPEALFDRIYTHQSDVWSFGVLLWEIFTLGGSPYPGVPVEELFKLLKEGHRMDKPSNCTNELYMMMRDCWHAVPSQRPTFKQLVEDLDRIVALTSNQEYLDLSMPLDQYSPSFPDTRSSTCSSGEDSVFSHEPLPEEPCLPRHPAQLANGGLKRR

Row | Structure (SMILES) | inhibition at 10 µM (ABL) | inhibition at 10 µM (ABL T315I) | inhibition at 0.1 µM (BRAF) | inhibition at 0.1 µM (EGFR (ErbB1)) | inhibition at 0.1 µM (EGFR (ErbB1) T790M L858R) | inhibition at 0.1 µM (FGFR1) | inhibition at 0.1 µM (FGFR2) | inhibition at 0.1 µM (KDR (VEGFR2)) | inhibition at 0.1 µM (PDGFRA (PDGFR alpha)) | inhibition at 0.1 µM (PDGFRB) | inhibition at 0.1 µM (SRC) | inhibition at 0.1 µM (VEGFR1) | EC50 (A549) | EC50 (BxPC-3) | EC50 (H1975) | EC50 (HT29) | EC50 (HepG2) | EC50 (MDA-MB-231) | EC50 (HUVEC) | EC50 (HuCCT1) | also measured
1 | COC(=O)c1cc2cc(NCc3cc(NC(=O)c4cc(CN5CCN(C)CC5)cc(C(F)(F)F)c4)ccc3C)cnc2[nH]1 [OR0699] |  |  | ≥ 50% | ≥ 50% | < 50% |  | < 50% | ≥ 50% | ≥ 50% |  | ≥ 50% |  | ≤ 100 nM | ≤ 100 nM | 100 to 1000 nM | ≤ 100 nM | 100 to 1000 nM | 100 to 1000 nM | 100 to 1000 nM | 100 to 1000 nM | EC50 (HeLa): 100 to 1000 nM; EC50 (HuH6 Clone 5): ≥ 1000 nM; EC50 (HuH7): 100 to 1000 nM
2 | COC(=O)c1cc2cc(NCc3cc(NC(=O)c4cncc(C(F)(F)F)c4)ccc3C)cnc2[nH]1 [OR0604] | ≥ 50% | < 50% | ≥ 50% | ≥ 50% | < 50% | < 50% | < 50% | ≥ 50% | ≥ 50% | ≥ 50% | ≥ 50% | < 50% | 100 to 1000 nM | 100 to 1000 nM | ≥ 1000 nM | ≥ 1000 nM | ≤ 100 nM | ≤ 100 nM | 100 to 1000 nM | ≥ 1000 nM | EC50 (HuH6 Clone 5): ≥ 1000 nM; EC50 (HuH7): 100 to 1000 nM; EC50 (PC-3): ≥ 1000 nM

The next lines start with results.

Row | inhibition at 10 µM (ABL) | inhibition at 10 µM (ABL T315I) | inhibition at 0.1 µM (BRAF) | inhibition at 0.1 µM (EGFR (ErbB1)) | inhibition at 0.1 µM (EGFR (ErbB1) T790M L858R) | inhibition at 0.1 µM (FGFR1) | inhibition at 0.1 µM (FGFR2) | inhibition at 0.1 µM (KDR (VEGFR2)) | inhibition at 0.1 µM (PDGFRA (PDGFR alpha)) | inhibition at 0.1 µM (PDGFRB) | inhibition at 0.1 µM (SRC) | inhibition at 0.1 µM (VEGFR1) | EC50 (A549) | EC50 (BxPC-3) | EC50 (H1975) | EC50 (HT29) | EC50 (HepG2) | EC50 (MDA-MB-231) | Structure (SMILES) | EC50 (HUVEC) | EC50 (HuCCT1) | also measured
3 | ≥ 50% | ≥ 50% | ≥ 50% | ≥ 50% | < 50% | < 50% | < 50% | ≥ 50% | ≥ 50% | < 50% | < 50% | < 50% | 100 to 1000 nM | 100 to 1000 nM | ≥ 1000 nM | 100 to 1000 nM | 100 to 1000 nM | 100 to 1000 nM | COC(=O)c1cc2cc(NCc3cc(NC(=O)c4ccc(Cn5cnc(C)c5)c(C(F)(F)F)c4)ccc3C)cnc2[nH]1 [OR0639] | 100 to 1000 nM | ≥ 1000 nM | EC50 (PC-3): ≥ 1000 nM
4 | ≥ 50% | < 50% | ≥ 50% | < 50% | < 50% | < 50% | < 50% | ≥ 50% | ≥ 50% | < 50% | ≥ 50% | < 50% | ≥ 1000 nM | ≥ 1000 nM | ≥ 1000 nM | ≥ 1000 nM | 100 to 1000 nM |  | COC(=O)c1cc2cc(NCc3cc(NC(=O)c4ccc5[nH]ccc5c4)ccc3C)cnc2[nH]1 [OR0617] | 100 to 1000 nM | ≥ 1000 nM | EC50 (HRMEC): ≥ 1000 nM
5 |  |  |  |  |  |  |  |  |  |  |  |  |  |  |  |  | ≥ 1000 nM |  | CNC(=O)c1cc(Oc2ccc(NC(=O)Nc3ccc(Cl)c(C(F)(F)F)c3)cc2)ccn1 [Sorafenib, reference compound] | 100 to 1000 nM | ≥ 1000 nM | EC50 (HuH6 Clone 5): ≥ 1000 nM; EC50 (HuH7): ≥ 1000 nM
